In this experiment the target is T1, HIV-1 capsid protein (Human immunodeficiency virus type 1 group M subtype B, UniProt P12493).
T1 construct: made in house
The experiment in a line: In vitro polymerization of HIV-1 capsid protein (HTRF, His-CA/GST-CA). It is filed as biochemical, HIV-1 NL4-3. The source says: • 1. MAb Anti GST-Eu cryptate (Cisbio) • 2. MAb Anti 6HIS-XL665 (Cisbio) • 3. His tag HIV-1 capsid protein (hereinafter referred to as His-CA) • 4. GST tag HIV-1 capsid protein (hereinafter referred to as GST-CA) • 5. 384-well unbound surface microplate, white (Corning) • 6. Microplate reader (BMG)
The HIV-1 capsid proteins aggregate spontaneously in high-salt solutions. Capsid protein derived from HIV-1 NL4-3 strains were separately tagged and expressed with 6His tag and GST tag, and purified. His-CA and GST-CA were mixed at high-salt concentrations, and the level of polymerization of capsid proteins was detected using GST antibody labeled with Eu3+-Cryptate (energy donor) and His antibody labeled with XL665 (energy acceptor). […]
His-CA was diluted to […] in a clean tube with protein diluent (50 mM Tris-HCl, pH 8.0, 50 mM NaCl, 0.4 mM MgCl2, 0.05% Triton X-100, 2% glycerol) while MAb Anti 6HIS-XL665 at a final concentration of 260 nM was added; GST-CA was diluted to 20 nM with protein diluent in another clean tube while MAb Anti GST-Eu cryptate at a final concentration of 3.33 nM was added and incubated on ice for half an hour. […] After incubation, the samples were excited with an excitation light at 337 nM, and signal values at 620 nM and 665 nM were collected for detection, wherein Ratio values=(665 nM/620 nM signal)*10000 was calculated according to the signal values. EC50 values for compounds were calculated using Graphpad Prism software based on each concentration of the compounds and the corresponding Ratio values.
For orientation: In TR-FRET formats the signal depends on donor and acceptor labels being close together.

Structures are written as SMILES.

As to `CC(C)(C#Cc1nc([C@H](Cc2cc(F)cc(F)c2)NC(=O)Cn2nc(C(F)(F)F)c3c2C(F)(F)[C@@H]2C[C@H]32)c(-c2ccc(Cl)c3c(NS(C)(=O)=O)nn(CC(F)(F)F)c23)c2c1CCC2)S(C)(=O)=O` (atropisomer, axis not shown; (aR)) [The compound of formula (I), N—((S)-1-((R)-4-(4-chloro-3-(methanesulfonamide)-1-(2,2,2-trifluoroethyl)-1H-indazol-7-yl)-1-(3-methyl-3-(methylsulfonyl)but-1-yn-1-yl)-6,7-dihydro-5H-cyclopenta[c]pyridin-3-yl)-2-(3,5-difluorophenyl)ethyl)-2-((3bS,4aR)-5,5-difluoro-3-(trifluoromethyl)-3b,4,4a,5-tetrahydro-1H-cyclopropa[3,4]cyclopenta[1,2-c]pyrazol-1-yl)acetamide], the EC50 stood at 9 nM and the Emax was determined as 100%. For the same compound, for the setting “conclusion in words”, the “inhibition effect on the polymerization of HIV-1 capsid proteins” value is recorded as “significant inhibition effect”.

Broadly, the EC50 is the concentration needed to bring the measured effect to its halfway point. High values mean weaker potency, low ones greater potency. Usually Emax stands for the greatest response seen or fitted, relative to the assay's reference.
